Values after ≈ are worked out from the molar mass of the structure shown.
Columns and labels:
Test in all cases: In vitro antibacterial evaluation: minimum inhibitory concentration (MIC), broth dilution method
Assay type in all cases: cell-based
[1] = system: Streptococcus sp.; conditions: 18 hours at 35° C.
Summary of the method: (§1)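 Broth dilution per NCCLS M7-A2 in Muller-Hinton II […], inoculum 5×10^5 CFU/mL, antibiotic tested over 64-0.06 μg/mL. MIC is taken as the lowest concentration that inhibits growth. Panel includes recent clinical isolates resistant to methicillin, penicillin and/or vancomycin.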

[2] = system: Enterococcus sp.; conditions: 18 hours at 35° C.
Summary of the method: as §1

[3] = system: Escherichia coli; conditions: 18 hours at 35° C.
Summary of the method: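 Values are minimum inhibitory concentrations, meaning the smallest antibiotic concentration that stops growth of the organism. They come from broth dilution in Muller-Hinton II […] per NCCLS guidance (M7-A2), using 5×10^5 CFU/mL and concentrations from 64 to 0.06 μg/mL.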

[4] = system: Staphylococcus sp.; conditions: for MIC Staphylococcus aureus (ATCC 29213): strain ATCC 29213; for MIC Staphylococcus aureus (GC 1131): strain GC 1131; for MIC Staphylococcus aureus (GC 3051): strain GC 3051; for MIC Staphylococcus aureus (GC 3053): strain GC 3053; for MIC Staphylococcus aureus (GC 4541): strain GC 4541; for MIC Staphylococcus aureus (GC 4542): strain GC 4542; for MIC Staphylococcus aureus-SMITH (GC 4543): strain GC 4543; for MIC Staphylococcus aureus (GC 4544): strain GC 4544; for MIC Staphylococcus aureus (GC 4545): strain GC 4545; for MIC Staphylococcus haemolyticus (GC 4546): strain GC 4546; for MIC Coagulase Negative Staphylococcus (GC 4547): strain GC 4547; for MIC Coagulase Negative Staphylococcus (GC 4548): strain GC 4548; for MIC Coagulase Negative Staphylococcus (GC 4549): strain GC 4549; for MIC Coagulase Negative Staphylococcus (GC 4551): strain GC 4551
Summary of the method: as §1

[5] = Streptococcus agalactiae (GC 4564)
[6] = Streptococcus pneumoniae (ATCC 6301)
[7] = Streptococcus pneumoniae (GC 1894)
[8] = Streptococcus pneumoniae (GC 4565)
[9] = Streptococcus pyogenes (GC 4563)
[10] = broth dilution, inoculum 5×10^5 CFU/mL
[11] = Enterococcus faecalis (ATCC 29212)
[12] = Enterococcus faecalis (GC 2242)
[13] = Enterococcus faecalis (GC 2691)
[14] = Enterococcus faecalis (GC 3059)
[15] = Enterococcus faecalis (GC 4552)
[16] = Enterococcus faecalis (GC 4553)
[17] = Enterococcus faecalis (GC 4554)
[18] = Enterococcus faecalis (GC 6189)

## CCCCN1CC(C(O)C2NC(=O)C(C(O)C3CNC(=N)N3)NC(=O)C(Cc3ccc(OC4OC(CO)C(OC5OC6COC7(OC6C(O)C5O)C5CC6CC(C5)CC7C6)C(O)C4O)cc3)NC(=O)C(C(C)c3ccccc3)NC(=O)CNC(=O)C(CO)NC2=O)N(C2OC(CO)C(O)C(O)C2O)C1=N (stereo not drawn) [Example 224, Cyclo[glycyl-β-methylphenylalanyl-O-[4-O-[4,6-O-(2-adamantylidene)hexopyranosyl]hexopyranosyl]tyrosyl-3-(2-iminoimidazolidin-4-yl)seryl-3-(1-butyl-3-hexopyranosyl-2-iminoimidazolidin-4-yl)serylseryl]]
[1]; [5]
  MIC Streptococcus agalactiae (GC 4564): <0.12 µg/mL
[1]; [6]
  MIC Streptococcus pneumoniae (ATCC 6301): 0.25 µg/mL (≈ 0.169 µM)
[1]; [7]
  MIC Streptococcus pneumoniae (GC 1894): <0.12 µg/mL
[1]; [8]
  MIC Streptococcus pneumoniae (GC 4565): 0.25 µg/mL (≈ 0.169 µM)
[1]; [9]
  MIC Streptococcus pyogenes (GC 4563): 0.25 µg/mL (≈ 0.169 µM)
[1]; [10]
  MIC Streptococcus agalactiae (GC 4564): <0.12 µg/mL
  MIC Streptococcus pneumoniae (ATCC 6301): 0.25 µg/mL (≈ 0.169 µM)
  MIC Streptococcus pneumoniae (GC 1894): <0.12 µg/mL
  MIC Streptococcus pneumoniae (GC 4565): 0.25 µg/mL (≈ 0.169 µM)
  MIC Streptococcus pyogenes (GC 4563): 0.25 µg/mL (≈ 0.169 µM)
[2]; Enterococcus avium (GC 4558)
  MIC Enterococcus avium (GC 4558): 2 µg/mL (≈ 1.35 µM)
[2]; [11]
  MIC Enterococcus faecalis (ATCC 29212): 4 µg/mL (≈ 2.7 µM)
[2]; [12]
  MIC Enterococcus faecalis (GC 2242): 4 µg/mL (≈ 2.7 µM)
[2]; [13]
  MIC Enterococcus faecalis (GC 2691): 4 µg/mL (≈ 2.7 µM)
[2]; [14]
  MIC Enterococcus faecalis (GC 3059): 4 µg/mL (≈ 2.7 µM)
[2]; [15]
  MIC Enterococcus faecalis (GC 4552): 4 µg/mL (≈ 2.7 µM)
[2]; [16]
  MIC Enterococcus faecalis (GC 4553): 2 µg/mL (≈ 1.35 µM)
[2]; [17]
  MIC Enterococcus faecalis (GC 4554): 4 µg/mL (≈ 2.7 µM)
[2]; [18]
  MIC Enterococcus faecalis (GC 6189): 4 µg/mL (≈ 2.7 µM)
[2]; Enterococcus faecium (GC 2243)
  MIC Enterococcus faecium (GC 2243): 2 µg/mL (≈ 1.35 µM)
[2]; Enterococcus faecium (GC 4556)
  MIC Enterococcus faecium (GC 4556): 4 µg/mL (≈ 2.7 µM)
[2]; Enterococcus faecium (GC 4557)
  MIC Enterococcus faecium (GC 4557): 0.5 µg/mL (≈ 0.337 µM)
[2]; [10]
  MIC Enterococcus avium (GC 4558): 2 µg/mL (≈ 1.35 µM)
  MIC Enterococcus faecalis (ATCC 29212): 4 µg/mL (≈ 2.7 µM)
  MIC Enterococcus faecalis (GC 2242): 4 µg/mL (≈ 2.7 µM)
  MIC Enterococcus faecalis (GC 2691): 4 µg/mL (≈ 2.7 µM)
  MIC Enterococcus faecalis (GC 3059): 4 µg/mL (≈ 2.7 µM)
  MIC Enterococcus faecalis (GC 4552): 4 µg/mL (≈ 2.7 µM)
  MIC Enterococcus faecalis (GC 4553): 2 µg/mL (≈ 1.35 µM)
  MIC Enterococcus faecalis (GC 4554): 4 µg/mL (≈ 2.7 µM)
  MIC Enterococcus faecalis (GC 6189): 4 µg/mL (≈ 2.7 µM)
  MIC Enterococcus faecium (GC 2243): 2 µg/mL (≈ 1.35 µM)
  MIC Enterococcus faecium (GC 4556): 4 µg/mL (≈ 2.7 µM)
  MIC Enterococcus faecium (GC 4557): 0.5 µg/mL (≈ 0.337 µM)
[3]; Escherichia coli (GC 4559)
  MIC Escherichia coli (GC 4559): 64 µg/mL (≈ 43.1 µM)
[3]
  MIC Escherichia coli (GC 4560): 2 µg/mL (≈ 1.35 µM)
[4]
  MIC Staphylococcus aureus (ATCC 29213): 2 µg/mL (≈ 1.35 µM)
  MIC Staphylococcus aureus (GC 1131): 4 µg/mL (≈ 2.7 µM)
  MIC Staphylococcus aureus (GC 3051): 2 µg/mL (≈ 1.35 µM)
  MIC Staphylococcus aureus (GC 3053): 4 µg/mL (≈ 2.7 µM)
  MIC Staphylococcus aureus (GC 4541): 1 µg/mL (≈ 0.674 µM)
  MIC Staphylococcus aureus (GC 4542): 4 µg/mL (≈ 2.7 µM)
  MIC Staphylococcus aureus-SMITH (GC 4543): 2 µg/mL (≈ 1.35 µM)
  MIC Staphylococcus aureus (GC 4544): 4 µg/mL (≈ 2.7 µM)
  MIC Staphylococcus aureus (GC 4545): 2 µg/mL (≈ 1.35 µM)
  MIC Staphylococcus haemolyticus (GC 4546): 1 µg/mL (≈ 0.674 µM)
  MIC Coagulase Negative Staphylococcus (GC 4547): 2 µg/mL (≈ 1.35 µM)
  MIC Coagulase Negative Staphylococcus (GC 4548): 1 µg/mL (≈ 0.674 µM)
  MIC Coagulase Negative Staphylococcus (GC 4549): 1 µg/mL (≈ 0.674 µM)
  MIC Coagulase Negative Staphylococcus (GC 4551): 2 µg/mL (≈ 1.35 µM)

## CC(C)=CCN1CC(C(O)C2NC(=O)C(C(O)C3CNC(=N)N3)NC(=O)C(Cc3ccc(OC4OC(CO)C(OC5OC6COC7(OC6C(O)C5O)C5CC6CC(C5)CC7C6)C(O)C4O)cc3)NC(=O)C(C(C)c3ccccc3)NC(=O)CNC(=O)C(CO)NC2=O)N(C2OC(CO)C(O)C(O)C2O)C1=N (stereo not drawn) [Example 225, Cyclo[glycyl-β-methylphenylalanyl-O-[4-O-[4,6-O-(2-adamantylidene)hexopyranosyl]hexopyranosyl]tyrosyl-3-(2-iminoimidazolidin-4-yl)seryl-3,3-hexopyranosyl-2-imino-1-(3-methylbut-2-en-1-iminoimidazolidin-4-yl]serylseryl]]
[1]; [5]
  MIC Streptococcus agalactiae (GC 4564): 0.5 µg/mL (≈ 0.334 µM)
[1]; [6]
  MIC Streptococcus pneumoniae (ATCC 6301): 0.5 µg/mL (≈ 0.334 µM)
[1]; [7]
  MIC Streptococcus pneumoniae (GC 1894): <0.12 µg/mL
[1]; [8]
  MIC Streptococcus pneumoniae (GC 4565): 1 µg/mL (≈ 0.669 µM)
[1]; [9]
  MIC Streptococcus pyogenes (GC 4563): 0.5 µg/mL (≈ 0.334 µM)
[1]; [10]
  MIC Streptococcus agalactiae (GC 4564): 0.5 µg/mL (≈ 0.334 µM)
  MIC Streptococcus pneumoniae (ATCC 6301): 0.5 µg/mL (≈ 0.334 µM)
  MIC Streptococcus pneumoniae (GC 1894): <0.12 µg/mL
  MIC Streptococcus pneumoniae (GC 4565): 1 µg/mL (≈ 0.669 µM)
  MIC Streptococcus pyogenes (GC 4563): 0.5 µg/mL (≈ 0.334 µM)
[2]; Enterococcus avium (GC 4558)
  MIC Enterococcus avium (GC 4558): 4 µg/mL (≈ 2.67 µM)
[2]; [11]
  MIC Enterococcus faecalis (ATCC 29212): 8 µg/mL (≈ 5.35 µM)
[2]; [12]
  MIC Enterococcus faecalis (GC 2242): 8 µg/mL (≈ 5.35 µM)
[2]; [13]
  MIC Enterococcus faecalis (GC 2691): 16 µg/mL (≈ 10.7 µM)
[2]; [14]
  MIC Enterococcus faecalis (GC 3059): 16 µg/mL (≈ 10.7 µM)
[2]; [15]
  MIC Enterococcus faecalis (GC 4552): 8 µg/mL (≈ 5.35 µM)
[2]; [16]
  MIC Enterococcus faecalis (GC 4553): 4 µg/mL (≈ 2.67 µM)
[2]; [17]
  MIC Enterococcus faecalis (GC 4554): 16 µg/mL (≈ 10.7 µM)
[2]; [18]
  MIC Enterococcus faecalis (GC 6189): 16 µg/mL (≈ 10.7 µM)
[2]; Enterococcus faecium (GC 2243)
  MIC Enterococcus faecium (GC 2243): 4 µg/mL (≈ 2.67 µM)
[2]; Enterococcus faecium (GC 4556)
  MIC Enterococcus faecium (GC 4556): 8 µg/mL (≈ 5.35 µM)
[2]; Enterococcus faecium (GC 4557)
  MIC Enterococcus faecium (GC 4557): 1 µg/mL (≈ 0.669 µM)
[2]; [10]
  MIC Enterococcus avium (GC 4558): 4 µg/mL (≈ 2.67 µM)
  MIC Enterococcus faecalis (ATCC 29212): 8 µg/mL (≈ 5.35 µM)
  MIC Enterococcus faecalis (GC 2242): 8 µg/mL (≈ 5.35 µM)
  MIC Enterococcus faecalis (GC 2691): 16 µg/mL (≈ 10.7 µM)
  MIC Enterococcus faecalis (GC 3059): 16 µg/mL (≈ 10.7 µM)
  MIC Enterococcus faecalis (GC 4552): 8 µg/mL (≈ 5.35 µM)
  MIC Enterococcus faecalis (GC 4553): 4 µg/mL (≈ 2.67 µM)
  MIC Enterococcus faecalis (GC 4554): 16 µg/mL (≈ 10.7 µM)
  MIC Enterococcus faecalis (GC 6189): 16 µg/mL (≈ 10.7 µM)
  MIC Enterococcus faecium (GC 2243): 4 µg/mL (≈ 2.67 µM)
  MIC Enterococcus faecium (GC 4556): 8 µg/mL (≈ 5.35 µM)
  MIC Enterococcus faecium (GC 4557): 1 µg/mL (≈ 0.669 µM)
[3]
  MIC Escherichia coli (GC 4560): 4 µg/mL (≈ 2.67 µM)
[4]
  MIC Staphylococcus aureus (ATCC 29213): 4 µg/mL (≈ 2.67 µM)
  MIC Staphylococcus aureus (GC 1131): 8 µg/mL (≈ 5.35 µM)
  MIC Staphylococcus aureus (GC 3051): 4 µg/mL (≈ 2.67 µM)
  MIC Staphylococcus aureus (GC 3053): 8 µg/mL (≈ 5.35 µM)
  MIC Staphylococcus aureus (GC 4541): 4 µg/mL (≈ 2.67 µM)
  MIC Staphylococcus aureus (GC 4542): 8 µg/mL (≈ 5.35 µM)
  MIC Staphylococcus aureus-SMITH (GC 4543): 4 µg/mL (≈ 2.67 µM)
  MIC Staphylococcus aureus (GC 4544): 8 µg/mL (≈ 5.35 µM)
  MIC Staphylococcus aureus (GC 4545): 4 µg/mL (≈ 2.67 µM)
  MIC Staphylococcus haemolyticus (GC 4546): 4 µg/mL (≈ 2.67 µM)
  MIC Coagulase Negative Staphylococcus (GC 4547): 4 µg/mL (≈ 2.67 µM)
  MIC Coagulase Negative Staphylococcus (GC 4548): 2 µg/mL (≈ 1.34 µM)
  MIC Coagulase Negative Staphylococcus (GC 4549): 2 µg/mL (≈ 1.34 µM)
  MIC Coagulase Negative Staphylococcus (GC 4551): 4 µg/mL (≈ 2.67 µM)

Source: patent US8247211B2, “Glycopeptide antibiotics” (American Cyanamid Company, priority 2001, dated 2012)
